Experimental findings from US20140348958A1, “Anticancer Active Ingredient From Guiera Senegalensis” (UNIVERSITE D'AUVERGNE CLERMONT I, priority 2011, published 2014) are described below.

This assay concerns mammary cancer cells MCF-7. The assay is described as follows: Proliferation measurement of mammary cancer cells MCF-7 (resazurin, 72 hrs exposure). In kind it is cell-based. The settings on record: for IC50: Homo sapiens; for Inhibition percentage: screening, single values and Averages. As to the method: Detailed Procedure of the Proliferation Measurement of Mammary Cancer Cells MCF-7
1st Part Day 1: Sowing the Cells
1. Preparation of the Medium:
• Preparation of the volume to be put into the plates:
In a 50 mL Falcon, prepare 30 mL of complete RPMI with 10% FCS and 1% Glutamine: 27 mL of RPMI: 3 mL of FCS and 300 μL of Glutamine.
2. Preparation of the Cell Suspension:
• Suck up the medium contained in the flask with the vacuum pump • Rinse with 3 mL of PBS and suck up with the vacuum pump • Add 1 mL of trypsin and let it act for 3 mins in the oven at 37° C. in order to detach the cells. • When the cells are detached, add 2 mL of complete medium prepared previously for inactivating the trypsin. • Mix well the suspension by suction-discharge and transfer into a well-defined Falcon 15. • Count the cells in a Malassez cell: carry out dilution to one 20th for counting them with Trypan blue.
• Sow the plates with 200 μL of cell suspension according to the determined scheme • Put 200 μL of water in the peripheral wells • Leave for incubation for 24 hours.
2nd Part: Day 2, the Extract is Exposed
4. Preparation of the Medium:
A total of 45 mL of medium to be prepared in a Falcon 50 sterilized i.e. 40.5 mL of RPMI+4.5 mL of FCS+450 μL of glutamine
5. Preparation of the Extracts:
• prepare a 10 mg/mL solution: • Dissolve 8.1 mg of crude extract (noted as SF) according to Example 1, of the SF 5 fraction according to Example 2 or of the KP-18^E fraction (Guieranone B) in 810 μL of DMSO • Prepare the mother solution of extract (Ex) at 100 μg/mL i.e. 50 μL of (10 mg/ml) in 4,950 μL of RPMI • Produce the range of extracts (for 1 extract and only 1 range). • Remove the medium in the plates and add 200 μL per well of an extract range (one column per concentration). • Incubate the plates in the oven at 37° C. for 72 hrs.
6. Prepare Resazurin (Developer) and Read the Plate to
2 columns of cells+one column of resazurin alone=3 columns
200 μL/well×3 columns×6 lines=3,600 μL (total volume to be prepared: 5 mL) • Prepare 4.9 mL of medium+100 μL resazurin
Remove the medium and add 200 μL of (medium+resazurin) per well. • Incubate for 2 hours and read with fluorskan. 3rd Part: Measurement of Proliferation at 24 Hours (for t0), 72 Hrs for Extract • For the extract at 72 hrs:
200 μL/well×18 columns×6 lines (total volume to be prepared: 25 mL) • Prepare 24.5 mL of RPMI+500 μL of resazurin • Remove the medium and add 200 μL of (medium+resazurin) per well. • After 2 hours, readout with fluorskan.
(Resazurin is reduced to fluorescent resorufin, in cell work by metabolically active cells.)

[1] abbreviates: MCF7, MCF-7 mammary cancer cell line, same conditions (Table 2), read-out: Average Cl50 in μM.
Where [2] appears, read: MCF7, MCF-7 mammary cancer cell line, same conditions (Table 2), read-out: Average Cl50 in μg/mL.
The mark [3] stands for this setting: MCF7, mammary cancer line MCF-7, same conditions (Table 15, identical with Table 2), read-out: Average CI50 in μM.
[4] abbreviates: MCF7, mammary cancer line MCF-7, same conditions (Table 15, identical with Table 2), read-out: Average CI50 in μg/mL.

Values joined by “and” are separate entries in the source; they are usually repeats but may differ in a detail not shown here. Identical values can stand only once. Like-named read-outs stand apart in the source and are kept apart here.

As to `O=c1[nH]cc(F)c(=O)[nH]1` [5-FU, 5-Fluorouracil, reference compound], the IC50 was 4.04 ± 0.39 µM under setting [1], 0.53 ± 0.05 µg/mL under setting [2], 4.04 ± 0.39 µM under setting [3] and 0.53 ± 0.05 µg/mL under setting [4].

On to `C/C=C/C(=O)C1=CC(OC)=C2C(=O)C(OC)=CC(OC)=C2C1=O` [Guieranone B], for which the IC50 (MCF7, 72 h, KP-18E, MCF-7, 72 hrs, average of the 6 tests, read-out: Average C150) came out at 2.25 µg/mL; the IC50 (MCF7, 72 h, KP-18E, MCF-7, 72 hrs, each of the 6 tests (1-2, N1-N3), read-out: CI50 (the source's name)) turned out to be 2.05 µg/mL; the IC50 under setting [1] worked out at 7.09 µM; the IC50 under setting [2] was determined as 2.24 ± 0.13 µg/mL; the IC50 under setting [3] was determined as 7.09 µM; the IC50 under setting [4] is 2.24 ± 0.13 µg/mL. Also, the Inhibition percentage reads like this: (KP-18E 1.5 μg/mL, MCF-7, 72 hrs) 49.86% and 36.10% and 48.15% and 50.66% and 53.59% and 53.16%; (KP-18E 1.5 μg/mL, MCF-7, 72 hrs, mean) 48.59%; (KP-18E 2 μg/mL, MCF-7, 72 hrs) 68.59% and 62.54% and 43.35% and 59.58% and 61.13% and 48.79%; (KP-18E 2 μg/mL, MCF-7, 72 hrs, mean) 57.33%; (KP-18E 2.5 μg/mL, MCF-7, 72 hrs) 69.73% and 57.84% and 59.61% and 65.92% and 65.73% and 68.02%; (KP-18E 2.5 μg/mL, MCF-7, 72 hrs, mean) 64.48%. The Inhibition percentage was 94.22% and 77.40% and 86.16% and 83.19% and 84.81% and 92.10% (KP-18E 3 μg/mL, MCF-7, 72 hrs); 86.31% (KP-18E 3 μg/mL, MCF-7, 72 hrs, mean); 100.00% and 99.38% (KP-18E 4 μg/mL, MCF-7, 72 hrs); 99.90% (KP-18E 4 μg/mL, MCF-7, 72 hrs, mean); 100.00% (KP-18E 5 μg/mL, MCF-7, 72 hrs). Moreover, the CI50 (KP-18E, MCF-7, 72 hrs, each of the 6 tests (1-2, N1-N3)) is 2.7202 µg/mL and 2.1664 µg/mL and 2.5518 µg/mL and 2.067 µg/mL and 1.9176 µg/mL. The “antiproliferative activity (in words)” value (line of mammary cancer cells MCF-7) is listed as “high antiproliferative activity”.
